From publication PMC12142043, “Cell-based high-content approach for SARS-CoV-2 neutralization identifies unique monoclonal antibodies and PI3K pathway inhibitors” (Frontiers in Cell and Developmental Biology, 2025)
Structures can show the parent of a compound that is named as a salt. Where two headings read alike, the source gives them in different places.

Tested on: SARS-CoV-2 (USA-WA1/2020) in Calu-3 cells
Assay type: cell-based
[1] = high dose (10 µM), Calu-3, 48 h
[2] = low dose (100 nM), Calu-3, 48 h

| Compound | dsRNA signal, AU High [1] [AU] | dsRNA signal, AU Low [2] [AU] | dsRNA signal, AU High | dsRNA signal, AU Low |
| --- | --- | --- | --- | --- |
| Cn1cc(C2=C(c3ccc(Cl)cc3Cl)C(=O)NC2=O)c2ccccc21 [SB 216763] | 596.7 | 53506.5 |  |  |
| COc1nccc(-c2c(-c3ccc(F)cc3)ncn2C2CCC(O)CC2)n1 (stereo not drawn) [SB 239063] | 16458.2 | 15855.6 |  |  |
| NC(=O)c1ccc(-c2nc(-c3ccc4c(c3)OCO4)c(-c3ccccn3)[nH]2)cc1 [SB 431542] | 540.4 | 12958.4 |  |  |
| O=C(Nc1ccc2[nH]nc(-c3ccncc3)c2c1)[C@@H]1CCN(CC(=O)N2CCN(c3ccc(-c4ncccn4)cc3)CC2)C1 [SCH772984] | 21169.8 | 17905.7 |  |  |
| CC(C)(C)C(=O)Nc1ccc2c(c1)C(=O)C(=O)c1ccccc1-2 [SF1670] | 30745.4 | 12301.2 |  |  |
| CN1CCC(CNc2ccc3ncc(-c4cccc(OC(F)(F)F)c4)n3n2)CC1 [SGI-1776 free base] | 1583.1 | 29976.5 |  |  |
| Cn1cc(-c2ccc3nnc(Sc4ccc5ncccc5c4)n3n2)cn1 [SGX-523] | 18702.9 | 25732.4 |  |  |
| Oc1ccc(Nc2nc(-c3ccc(Cl)cc3)cs2)cc1 [SKI II] | 31334.0 | 21341.0 |  |  |
| CNC(=O)c1cc(Oc2ccc(NC(=O)c3cccc(C(F)(F)F)c3)cc2)ccn1 [SKLB610] | 126.4 | 8430.0 |  |  |
| N#C/C(=C(/N)Sc1ccc(N)cc1)c1ccccc1C(F)(F)F [SL-327] | 10911.9 | 24198.7 |  |  |
| CC(C)NC(=O)COc1cccc(-c2nc(Nc3ccc4[nH]ncc4c3)c3ccccc3n2)c1 [SLx-2119] | 20785.5 | 59494.3 |  |  |
| O=C1NC(=O)/C(=C/c2cccc(C(F)(F)F)c2)S1 [SMI-4a] | 0.0 | 12244.4 |  |  |
| O=C(Nc1cccc(Cl)c1)Nc1ncc(CCNc2ncnc3ccsc23)s1 [SNS-314 Mesylate] | 5716.5 | 33317.4 |  |  |
| O=C(Nc1cc(C(F)(F)F)ccc1N1CCCCC1)c1ccncc1 [SRPIN340] | 38969.9 | 6071.8 |  |  |
| COc1c(C)c(C(=O)c2ccc(N)c(C(=O)[O-])c2)n2ccccc12.[Na+] [SSR128129E] | 4736.0 | 27624.5 |  |  |
| O=S(=O)(N=Cc1c(O)ccc2ccccc12)c1cccs1 [STF 083010] | 54363.2 | 46405.9 |  |  |
| Cc1cc(C)c(/C=C2\C(=O)Nc3ccccc32)[nH]1 [SU5416] | 39551.1 | 20455.1 |  |  |
| O=C(/C=C/c1ccccc1)NC(NC(=S)Nc1ccc(Cl)cc1)C(Cl)(Cl)Cl (stereo not drawn) [Sal 003] | 58234.6 | 61292.8 |  |  |
| OC[C@H]1O[C@@H](OCCc2ccc(O)cc2)[C@H](O)[C@@H](O)[C@@H]1O [Salidroside] | 19295.0 | 56220.3 |  |  |

| Compound | dsRNA signal, AU High [1] [AU] | dsRNA signal, AU Low [2] [AU] | dsRNA signal, AU High | dsRNA signal, AU Low |
| --- | --- | --- | --- | --- |
| C[n+]1cc2c3c(ccc2c2ccc4cc5c(cc4c21)OCO5)OCO3 [Sanguinarine chloride] | 0.0 | 15548.2 |  |  |
| C[n+]1cc2c3c(ccc2c2ccc4cc5c(cc4c21)OCO5)OCO3 [Sanguinarine] | 0.0 | 895.9 |  |  |
| O=C(O)[C@H]1O[C@@H](Oc2cc3oc(-c4ccc(O)cc4)cc(=O)c3c(O)c2O)[C@H](O)[C@@H](O)[C@@H]1O [Scutellarin] | 1769.9 | 52840.4 |  |  |
| N#Cc1ccc2ncnc(NCCc3ccccc3)c2c1 [Senexin A] | 30520.6 | 31796.6 |  |  |
| O=C(O)c1cc(O)c2c(c1)[C@@H]([C@H]1c3cc(C(=O)O)cc(O)c3C(=O)c3c(O[C@@H]4O[C@H](CO)[C@@H](O)[C@H](O)[C@H]4O)cccc31)c1cccc(O[C@@H]3O[C@H](CO)[C@@H](O)[C@H](O)[C@H]3O)c1C2=O [Sennoside B] | 3953.3 | 3310.7 |  |  |
| CC(C)=CC[C@@H](O)C1=CC(=O)c2c(O)ccc(O)c2C1=O [Shikonin] | 54262.1 | 4009.3 |  |  |
| CN1CCN(c2nc(C3=C(c4c[nH]c5ccccc45)C(=O)NC3=O)c3ccccc3n2)CC1 [Sotrastaurin (AEB071)] | 6965.2 | 40818.2 |  |  |
| COc1cc(N2CCC(N3CCN(C)CC3)CC2)ccc1Nc1ncc(Cl)c(Nc2ccccc2S(=O)(=O)C(C)C)n1 [TAE684 (NVP-TAE684)] | 41419.4 | 4182.3 |  |  |
| COc1cc(C(=O)NC2CCN(C)CC2)c(F)cc1Nc1ncc2c(n1)N(C1CCCC1)CC(F)(F)C(=O)N2C [TAK960] | 9929.6 | 56355.2 |  |  |
| N#Cc1c(Oc2ccc(F)c(NC(=O)Cc3cccc(C(F)(F)F)c3)c2)ccc2nc(NC(=O)C3CC3)sc12 [TAK-632] | 12667.4 | 8796.8 |  |  |
| CCc1nc(-c2cccc(C)c2)c(-c2ccnc(NC(=O)c3ccccc3)c2)s1 [TAK-715] | 42569.8 | 29513.1 |  |  |
| CCS(=O)(=O)c1cccc(-c2cc(C(=O)NC3CCN(C)CC3)c(C)c3[nH]c4ncc(C)cc4c23)c1 [TAK-901] | 42486.6 | 61332.6 |  |  |
| Brc1c(Br)c(Br)c2n[nH]nc2c1Br [TBB] | 3323.3 | 16520.0 |  |  |
| COc1ccc(C(=O)Nc2sc3c(c2C(N)=O)CCCC3)cc1OC [TCS 359] | 5896.0 | 63380.8 |  |  |
| N#Cc1c(NC(=O)c2cccc3ccccc23)sc2c1CCCC2 [TCS JNK 5a] | 1144.9 | 17159.4 |  |  |
| N#Cc1c(-c2ccccc2)cc(-c2cc(Br)ccc2O)[nH]c1=O [TCS PIM-1 1] | 1935.2 | 16463.0 |  |  |
| O=C1NC(=O)/C(=C/c2cccc(C(F)(F)F)c2)S1 [TCS-PIM-1-4a] | 1917.5 | 12250.9 |  |  |
| Cn1sc(=O)n(Cc2ccccc2)c1=O [TDZD-8] | 7580.3 | 26092.4 |  |  |
| CCN1/C(=C/C(C)=O)Sc2ccc(OC)cc21 [TG003] | 1126.7 | 61445.9 |  |  |

| Compound | dsRNA signal, AU High [1] [AU] | dsRNA signal, AU Low [2] [AU] | dsRNA signal, AU High | dsRNA signal, AU Low |
| --- | --- | --- | --- | --- |
| Nc1nc(N)c2nc(-c3cccc(O)c3)c(-c3cccc(O)c3)nc2n1 [TG100-115] | 401.6 | 17405.4 |  |  |
| Cc1ccccc1CN1C(=O)C2=C(CCN(Cc3ccccc3)C2)N2CCN=C12 [TIC10] | 0.0 | 1481.6 |  |  |
| Cc1[nH]c(/C=C2\C(=O)Nc3ccccc32)c(C)c1CCC(=O)O [TSU-68 (SU6668,Orantinib)] | 4841.4 | 21696.8 |  |  |
| Nc1cccc(-c2cc3c(Oc4cccc(O)c4)ncnc3[nH]2)c1 [TWS119] | 48959.2 | 29417.1 |  |  |
| COc1cc2c(N3CCN(C(=O)Nc4ccc(OC(C)C)cc4)CC3)ncnc2cc1OCCCN1CCCCC1.Cl [Tandutinib (MLN518) HCl] | 42444.4 | 13615.8 |  |  |
| O=C(NCc1ccccc1)c1csc(Nc2ccncn2)n1 [Thiazovivin] | 2364.1 | 26827.3 |  |  |
| O=c1sn(-c2cccc3ccccc23)c(=O)n1Cc1ccccc1 [Tideglusib] | 352.7 | 1603.7 |  |  |
| COc1ccc2cc(-c3nc(-c4ccc([S+](C)[O-])cc4)[nH]c3-c3ccncc3)ccc2c1 (stereo not drawn) [Tie2 kinase inhibitor] | 4787.9 | 16594.7 |  |  |
| COc1cc2nccc(Oc3ccc(NC(=O)Nc4cc(C)on4)c(Cl)c3)c2cc1OC [Tivozanib (AV-951)] | 40142.9 | 36133.0 |  |  |
| C[C@@H]1CCN(C(=O)CC#N)C[C@@H]1N(C)c1ncnc2[nH]ccc12.O=C(O)CC(O)(CC(=O)O)C(=O)O [Tofacitinib (CP-690550) Citrate] | 57107.2 | 61115.5 |  |  |
| C[C@@H]1CCN(C(=O)CC#N)C[C@@H]1N(C)c1ncnc2[nH]ccc12 [Tofacitinib (CP-690550,Tasocitinib)] | 6571.2 | 4801.5 |  |  |
| CCC(=O)N1CCN(c2ccc(-n3c(=O)ccc4cnc5ccc(-c6cnc7ccccc7c6)cc5c43)cc2C(F)(F)F)CC1 [Torin 1] | 1083.7 | 14896.3 |  |  |
| CC(=O)Nc1cccc(-n2c(=O)n(C3CC3)c(=O)c3c(Nc4ccc(I)cc4F)n(C)c(=O)c(C)c32)c1.C[S+](C)[O-] [Trametinib DMSO solvate] |  |  | 10918.5 | 24279.8 |
| NC(=S)N/N=C/c1ncccc1N [Triapine] | 0.0 | 17637.1 |  |  |
| CC(C)(C)c1cc(C=C(C#N)C#N)cc(C(C)(C)C)c1O [Tyrphostin 9] | 58.0 | 17328.1 |  |  |
| CC(C)(C)c1cc(/C=C(\C#N)C(N)=S)cc(C(C)(C)C)c1O [Tyrphostin AG 879] | 54.0 | 6760.3 |  |  |
| COc1cc2ncc(-c3ccccc3)nc2cc1OC [Tyrphostin AG 1296] | 2647.7 | 18881.3 |  |  |
| CCCCNc1ncc2c(-c3ccc(CN4CCN(C)CC4)cc3)cn([C@H]3CC[C@H](O)CC3)c2n1 [UNC2025] | 55553.7 | 67297.4 |  |  |
| CCCCNc1ncc(C(=O)NCc2ccc(-n3ccnc3)cc2)c(NC2CCC(O)CC2)n1 (stereo not drawn) [UNC2881] | 446.4 | 42094.2 |  |  |
